How the values were obtained:
[1] = ref [9],[10]; cited from earlier work
FXR-RUNX2 signalling = FXR-RUNX2 signalling in femur of OVX mice; assay type: in vivo, C57BL/6J mice; conditions: 20 mg/kg intravenously daily for 4 weeks, qRT-PCR, n = 6
MC3T3-E1 cells = assay: ALP activity analysis of MC3T3-E1 cells; assay type: cell-based, mouse; conditions: osteogenic differentiation medium, GPA 50 μM or SGPA 2.5-10 μM; 14 days (method) / 7 days (Fig. 3 legend)
[2] = test system: farnesoid X receptor (FXR); conditions: ref [11],[12]; cited from earlier work
human and mouse OBs = conditions: peptide screened by phage technology; ref [21]; cited from earlier work
[3] = test system: osteoblast-specific factor 2 (OSF-2); conditions: ref [21]; cited from earlier work

Molecule | tissue enrichment of GPA [1] | mRNA expression of Bsep (a target gene for FXR) in femur (FXR-RUNX2 signalling) | mRNA expression of Runx2 in femur (FXR-RUNX2 signalling) | ALP activity (MC3T3-E1 cells) | activation of farnesoid X receptor (FXR) [2] | targeting of OBs (human and mouse OBs) | affinity with osteoblast-specific factor 2 (OSF-2) [3]
O=C(O)C1=CO[C@@H](O[C@@H]2O[C@H](CO)[C@@H](O)[C@H](O)[C@H]2O)[C@@H]2C(CO)=CC[C@H]12 [GPA, Geniposidic acid] | enriched in liver and kidney | significantly increased | significantly increased | increased | activated |  | 
Ser-Asp-Ser-Ser-Asp [SDSSD] |  |  |  |  |  | can specifically target both human and mouse OBs | high affinity
